Test results published in US8642594B2, “Substituted thieno[2,3-d]pyrimidines as HSP90 inhibitors” (Vernalis (R&D) Limited, priority 2003, dated 2014).
pIC50: −log10 of the molar value.

What follows are molecules tested against T1, Human full-length Hsp90 (Homo sapiens, UniProt P08238) (assay: Fluorescence polarization assay (competitive binding to HSP90, probe RBT0045864-FAM)). Settings: not given.
T1 construct: E. coli expressed human full-length HSP90 protein, purified >95%; made in house; host or cells: E. coli
T1 sequence (P08238 whole entry): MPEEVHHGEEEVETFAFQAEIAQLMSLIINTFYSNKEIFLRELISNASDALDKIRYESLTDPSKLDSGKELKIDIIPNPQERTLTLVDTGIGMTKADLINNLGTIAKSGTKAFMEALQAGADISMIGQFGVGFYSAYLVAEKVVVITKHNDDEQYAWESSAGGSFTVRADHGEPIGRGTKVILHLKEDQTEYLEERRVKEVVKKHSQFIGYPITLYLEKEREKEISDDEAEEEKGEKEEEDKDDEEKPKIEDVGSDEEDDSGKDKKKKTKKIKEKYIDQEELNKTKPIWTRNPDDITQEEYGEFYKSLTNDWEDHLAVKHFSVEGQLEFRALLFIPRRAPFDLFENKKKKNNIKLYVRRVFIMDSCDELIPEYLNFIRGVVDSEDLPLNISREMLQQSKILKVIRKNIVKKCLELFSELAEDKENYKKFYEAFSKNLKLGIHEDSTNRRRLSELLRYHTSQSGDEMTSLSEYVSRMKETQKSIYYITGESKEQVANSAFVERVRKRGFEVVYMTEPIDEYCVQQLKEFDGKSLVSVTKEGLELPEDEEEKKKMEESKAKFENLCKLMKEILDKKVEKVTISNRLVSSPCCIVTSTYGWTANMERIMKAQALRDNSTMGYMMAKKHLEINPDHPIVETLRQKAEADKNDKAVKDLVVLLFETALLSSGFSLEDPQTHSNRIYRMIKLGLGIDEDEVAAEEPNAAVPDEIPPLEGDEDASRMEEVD
Description: Fluorescence Polarization Assay
Fluorescence polarization {also known as fluorescence anisotropy} measures the rotation of a fluorescing species in solution, where the larger molecule the more polarized the fluorescence emission. When the fluorophore is excited with polarized light, the emitted light is also polarized. The molecular size is proportional to the polarization of the fluorescence emission.
The fluoroscein-labelled probe—RBT0045864-FAM—
Test compound is added to the assay plate, left to equilibrate and the anisotropy measured again. Any change in anisotropy is due to competitive binding of compound to HSP90, thereby releasing probe.
Stored at room temperature. • 3) BSA (bovine serum albumen) 10 mg/ml (New England Biolabs #B9001S) • 4) 20 mM probe in 100% DMSO stock concentration. Stored in the dark at RT. Working concentration is 200 nM diluted in AR water and stored at 4° C. […] Protocol • 1) Add 100 μl 1× buffer to wells 11A and 12A (=FP BLNK) • 2) Prepare assay mix—all reagents are kept on ice with a lid on the bucket as the probe is light-sensitive.
This gives 2.5 mM {50×} stock cpd—assuming cpds 20 mM. • 4) Repeat for wells A2 to A10. Control in columns 11 and 12. • 5) Transfer 5 μl from row A to row B—not column 12. Mix well. • 6) Transfer 5 μl from row B to row C. […] Add 2 μl of 100 mM standard cpd to wells B12-H12 {is positive control} • 13) The Z′ factor is calculated from zero controls and positive wells.
Work on `CCNC(=O)c1cc2c(-c3cc(OCCCN(C)C)c(Cl)cc3Cl)nc(N)nc2s1` [Example 255] yielded a pIC50 greater than 5.00.

Same assay, conditions: fluorescence polarization assay, activity range; read-out: Hsp90 FP IC50
`CCNC(=O)c1cc2c(-c3ccc(CC)cc3Cl)nc(N)nc2s1` [Example 177] showed a pIC50 greater than 5.00. Molecule `CCC(C)NC(=O)c1cc2c(-c3ccccc3)nc(N)nc2s1` (stereo not drawn) [Example 59] has a pIC50 of less than 5.00. Molecule `CCOC(=O)c1cc2c(CCc3ccccc3)nc(N)nc2s1` [Example 275, 2-Amino-4-phenethyl-thieno[2,3-d]pyrimidine-6-carboxylic acid ethyl ester] has a pIC50 greater than 5.00. In the case of `CCNC(=O)c1cc2c(-c3cc(OCC(=O)N4CCOCC4)c(Cl)cc3Cl)nc(N)nc2s1` [Example 271], the pIC50 was greater than 5.00. Molecule `Nc1nc(-c2ccccc2)c2cc(C(=O)NCCc3cccnc3)sc2n1` [Example 51] has a pIC50 of less than 5.00. With `CCNC(=O)c1cc2c(-c3cc(OCCN4CCOCC4)c(Cl)cc3Cl)nc(N)nc2s1` [Example 236, 2-Amino-4-[2,4-dichloro-5-(2-morpholin-4-yl-ethoxy)-phenyl]-thieno[2,3-d]pyrimidine-6-carboxylic acid ethyl amide] the pIC50 was greater than 5.00. Molecule `CCOC(=O)c1cc2c(-c3cc(OCc4ccccc4)c(Cl)cc3Cl)nc(N)nc2s1` [Example 239] has a pIC50 greater than 5.00. `CCOC(=O)c1cc2c(-c3ncccc3C)nc(N)nc2s1` [Example 115] was tested, and the pIC50 was greater than 5.00. `CCNC(=O)c1cc2c(-c3cc(OCC4CCCO4)c(Cl)cc3Cl)nc(N)nc2s1` (stereo not drawn) [Example 262] was tested, and the pIC50 was greater than 5.00. With `CCOC(=O)c1cc2c(/C=C/c3cccc(C(F)(F)F)c3)nc(N)nc2s1` [Example 284] the pIC50 was greater than 5.00. Molecule `CS(=O)(=O)c1ccc(CNC(=O)c2cc3c(-c4ccc(Cl)cc4Cl)nc(N)nc3s2)cc1` [Example 117] has a pIC50 greater than 5.00. `CCOC(=O)c1cc2c(C=Cc3ccccc3)nc(N)nc2s1` [275 Step 1] showed a pIC50 greater than 5.00. `Nc1nc(-c2ccc(Cl)cc2Cl)c2cc(C(=O)Nc3ccc(S(N)(=O)=O)cc3)sc2n1` [Example 108] showed a pIC50 greater than 5.00. Molecule `CCOC(=O)c1cc2c(-c3ccsc3)nc(N)nc2s1` [Example 18] has a pIC50 of less than 5.00. Work on `C=C(c1ccc(F)cc1)c1nc(N)nc2sc(C(=O)OCC)cc12` [Example 277] yielded a pIC50 greater than 5.00. `Nc1nc(-c2ccc(Cl)cc2Cl)c2cc(C(=O)NCCCN3CCCC3)sc2n1` [Example 145] showed a pIC50 greater than 5.00. In the case of `CCNC(=O)c1cc2c(-c3cc(CNCCc4cccs4)ccc3C)nc(N)nc2s1` [Example 214], the pIC50 was greater than 5.00. Work on `CCOC(=O)c1cc2c(C(=O)c3ccccc3C)nc(N)nc2s1` [Example 311] yielded a pIC50 greater than 5.00. Work on `CN(c1ccccc1)c1nc(N)nc2sc(C(N)=O)cc12` [Example 63] yielded a pIC50 of less than 5.00. In the case of `CCNC(=O)c1cc2c(-c3cc(CNCc4cccs4)ccc3C)nc(N)nc2s1` [Example 201], the pIC50 was greater than 5.00. Work on `CCOC(=O)c1sc2nc(N)nc(-c3ccccc3)c2c1Br` [Example 99] yielded a pIC50 of less than 5.00. Work on `CCOC(=O)c1cc2c(-c3c[nH]c4ccccc34)nc(N)nc2s1` [Example 294] yielded a pIC50 of less than 5.00. `CCNC(=O)c1cc2c(-c3cc(C)c(Br)cc3C)nc(N)nc2s1` [Example 149] gave a pIC50 greater than 5.00. With `CCNCc1ccc(C)c(-c2nc(N)nc3sc(C(=O)NCC)cc23)c1` [Example 206] the pIC50 was greater than 5.00. With `CCOC(=O)c1cc2c(-c3ccc(O)cc3C)nc(N)nc2s1` [Example 184, 2-Amino-4-(4-hydroxy-2-methyl-phenyl)-thieno[2,3-d]pyrimidine-6-carboxylic acid ethyl ester] the pIC50 was greater than 5.00. `CCOC(=O)c1cc2c(-c3c(Cl)cccc3OC)nc(N)nc2s1` [Example 147] gave a pIC50 of less than 5.00. `CCOC(=O)c1sc2nc(N)nc(-c3ccccc3)c2c1N` [Example 74, 2,5-Diamino-4-phenyl-thieno[2,3-d]pyrimidine-6-carboxylic acid ethyl ester] showed a pIC50 of less than 5.00. Work on `Nc1nc(-c2ccc(Cl)cc2Cl)c2cc(C(=O)Nc3ccc(Cl)cc3)sc2n1` [Example 111] yielded a pIC50 greater than 5.00. `CC=Cc1nc(N)nc2sc(C(=O)OCC)cc12` [Example 291] gave a pIC50 of less than 5.00. `COc1ccc(CNC(=O)c2cc3c(-c4ccc(Cl)cc4Cl)nc(N)nc3s2)cc1` [Example 118] was tested, and the pIC50 was greater than 5.00. In the case of `CCOC(=O)c1cc2c(Nc3ccccc3)nc(N)nc2s1` [Example 28], the pIC50 was less than 5.00. Molecule `CCOC(=O)c1cc2c(-c3ccc(C)cn3)nc(N)nc2s1` [Example 114] has a pIC50 greater than 5.00. `CCNC(=O)c1cc2c(-c3cc(CNCCCOC)ccc3C)nc(N)nc2s1` [Example 202] gave a pIC50 greater than 5.00. For `CCNC(=O)c1cc2c(-c3cc(OCCNC4CCCCC4)c(Cl)cc3Cl)nc(N)nc2s1` [Example 245], the pIC50 was greater than 5.00. Molecule `C=Cc1ccc(-c2nc(N)nc3sc(C(=O)OCC)cc23)c(C)c1` [Example 168] has a pIC50 greater than 5.00. `CCOC(=O)c1cc2c(Nc3ccc4cn[nH]c4c3)nc(N)nc2s1` [Example 39] showed a pIC50 of less than 5.00. With `CCOC(=O)c1cc2c(-c3cccc4cccnc34)nc(N)nc2s1` [Example 100] the pIC50 was less than 5.00. `CCNC(=O)c1cc2c(-c3ccc(C#N)cc3Cl)nc(N)nc2s1` [Example 172] gave a pIC50 greater than 5.00. Molecule `CCOC(=O)c1cc2c(-c3ccccc3)nc(N)nc2s1` [Example 1, 2-Amino-4-phenyl-thieno[2,3-d]pyrimidine-6-carboxylic acid ethyl ester] has a pIC50 greater than 5.00. `COC(=O)c1cc2c(NCc3ccccc3)nc(N)nc2s1` [Example 22, 2-Amino-4-benzylamino-thieno[2,3-d]pyrimidine-6-carboxylic acid methyl ester] showed a pIC50 of less than 5.00. In the case of `CCCCNCc1ccc(C)c(-c2nc(N)nc3sc(C(=O)NCC)cc23)c1` [Example 213], the pIC50 was greater than 5.00. With `CCOC(=O)c1cc2c(-c3ccccc3CC)nc(N)nc2s1` [Example 76] the pIC50 was less than 5.00. Molecule `CCOC(=O)c1cc2c(C(=O)c3ccccc3)nc(N)nc2s1` [Example 296] has a pIC50 greater than 5.00. Work on `COC(=O)c1cc2c(N(C)Cc3ccccc3)nc(N)nc2s1` [Example 23] yielded a pIC50 of less than 5.00. For `CCOC(=O)c1cc2c(-c3ccc(OCCN(CC)CC)cc3C)nc(N)nc2s1` [Example 190], the pIC50 was less than 5.00. Work on `CCOC(=O)c1cc2c(Oc3ccccc3)nc(N)nc2s1` [Example 19] yielded a pIC50 of less than 5.00. `CNC(=O)c1cc2c(NCc3ccccc3)nc(N)nc2s1` [Example 65] was tested, and the pIC50 was less than 5.00. With `CCOC(=O)c1cc2c(C(C)(O)c3ccc4c(c3)OCO4)nc(N)nc2s1` (stereo not drawn) [Example 315, 2-Amino-4-(1-benzo[1,3]dioxol-5-yl-1-hydroxy-ethyl)-thieno[2,3-d]pyrimidine-6-carboxylic acid ethyl ester] the pIC50 was greater than 5.00. For `Nc1nc(-c2ccccc2)c2cc(C(=O)NCCc3cnc[nH]3)sc2n1` [Example 57], the pIC50 was greater than 5.00. `CCOC(=O)c1cc2c(-c3cc(C=O)ccc3C)nc(N)nc2s1` [Example 196, 2-Amino-4-(5-formyl-2-methyl-phenyl)-thieno[2,3-d]pyrimidine-6-carboxylic acid ethyl ester] showed a pIC50 greater than 5.00. In the case of `Nc1nc(-c2ccccc2)c2cc(C(=O)NCCc3ccccc3)sc2n1` [Example 49], the pIC50 was less than 5.00. In the case of `NC(=O)[C@H](Cc1cnc[nH]1)NC(=O)c1cc2c(-c3ccc(Cl)cc3Cl)nc(N)nc2s1` [Example 164], the pIC50 was greater than 5.00. Work on `CCOC(=O)c1cc2c(C(=O)c3cc(C)c(C)cc3C)nc(N)nc2s1` [Example 308] yielded a pIC50 greater than 5.00. `Nc1nc(-c2ccc(Cl)cc2Cl)c2cc(C(=O)NCCS(N)(=O)=O)sc2n1` [Example 130] showed a pIC50 greater than 5.00. In the case of `CCOC(=O)c1cc2c(-c3ccc(OCC(C)C)cc3C)nc(N)nc2s1` [Example 189], the pIC50 was less than 5.00. `C=CCc1ccc(-c2nc(N)nc3sc(C(=O)NCC)cc23)c(C)c1` [Example 176] showed a pIC50 greater than 5.00.
